From patent publication US10113147B2, “Method for producing megakaryocytes, platelets and/or thrombopoietin using mesenchymal cells” (AdipoSeeds, Inc., priority 2013, dated 2018)
Where a name gives a salt, the structure may show the parent alone. Values belong to the compound of their own block, whether it stands above or below them.

What was measured:
Assay type in all cases: cell-based
preadipocytes [1] = assay: Effect of iron chelator and apo-transferrin on ratio of CD41-positive cells; details: Day 4
Protocol: To investigate effect of an iron ion on induction of preadipocytes into megakaryocytes/platelets, analysis using the preadipocytes was made. Specifically, a medium (basic medium+iron-bound transferrin+Desferal (deferoxamine mesylate)) was prepared by adding an iron chelator, Desferal (deferoxamine mesylate, manufactured by Novartis Pharma K. K.) to a basic medium containing 200 μg/mL iron-bound transferrin, or a medium (basic medium+apo-transferrin) was prepared by adding a non-iron-bound transferrin, apo-transferrin (manufactured by Athens Research and Technology) to a basic medium alone. Cells were cultured in these mediums and the ratio (%) of CD41 (specific marker of megakaryocytes and platelets)—positive cells in the cells on Day 4 after the culture was determined. The results of Desferal (deferoxamine mesylate) addition are shown in Table 3; whereas the results of apo-transferrin addition are shown in Table 4.

mouse preadipocytes [2] = assay: CD41-positive ratio of sorted adipose tissue-derived cell fractions cultured with iron-bound transferrin; details: CD31 negative, 200 μg/mL, Day 5
Protocol: A subcutaneous adipose tissue was isolated from a mouse. To this, collagenase was added. The mixture was incubated at 37° C. for one hour and centrifuged to obtain a cell layer as a lower layer. Thereafter, these cells were labeled with a fluorescence-labeled anti-CD45 antibody (manufactured by BD Bioscience), a fluorescence-labeled anti-Ter119 antibody (manufactured by BD Bioscience) and 7AAD (manufactured by BD Bioscience), and fluorescence was measured by flow cytometry. Of the cells shown in FIG. 7, upper right panel, cells of CD45 negative, Ter119 negative and 7-AAD negative (cells under the line at the center of the upper right panel of FIG. 7) were separately taken. CD45 is known as a marker of hematopoietic cells (leucocytes, lymphocytes, eosinophils, monocytes, basophils, and neutrophils) excluding erythrocytes and platelets. Ter119 is known as a marker of mature erythrocytes and erythroid progenitor cells. 7-AAD (7-amino-actinomycin D) is known as a marker of dead cells.
Subsequently, CD45 negative, Ter119 negative and 7-AAD negative cells separately taken were labeled with a fluorescence-labeled anti-CD31 antibody (manufactured by BD Bioscience) and fluorescent was measured by flow cytometry. Of the cells shown in the lower left panel of FIG. 7, CD31 negative cells (cells under the line of the center of the lower left panel of FIG. 7) were separately taken. […]
Subsequently, the cells (CD45 negative, Ter119 negative, 7-AAD negative and CD31 negative) previously separately taken were labeled with a fluorescence-labeled anti-c-MPL antibody (manufactured by BD Bioscience) and a fluorescence-labeled anti-CD71 antibody (manufactured by BD Bioscience), and fluorescence was measured by flow cytometry. […]
The cells shown in individual portions of the left panel of FIG. 8 were separately cultured in a medium prepared by adding 200 μg/mL iron-bound transferrin to the basic medium described in Example 3. The ratio (%) of CD41 (specific marker of megakaryocytes/platelets)-positive cells in the cells on Day 5 after initiation of culture was determined. […]

human preadipocytes [3] = assay: TPO production at different iron-bound transferrin concentrations; details: for TPO: Day 4
human preadipocytes [4] = assay: Ratio of CD41-positive cells at different iron-bound transferrin concentrations; details: Day 4
Protocol: Human preadipocytes maintenance-cultured in accordance with the method of Example 1 were prepared and cultured in mediums prepared by adding iron-bound transferrin samples different in concentration to the basic medium described in Example 3. The ratio (%) of CD41 (specific marker of megakaryocytes and platelets)-positive cells in the cells on Day 4 after initiation of the culture was determined.

mouse preadipocytes [5] = assay: Identification of megakaryocyte/platelet production inducing substance (CD41 flow cytometry); details: reagent added alone to basic medium, Day 7
Protocol: In order to identify an important factor(s) for inducing production of megakaryocytes/platelets from preadipocytes, mediums were prepared by separately adding individual reagents contained in a differentiation-inducing medium (MKLI medium) for megakaryocytes/platelets, to a basic medium (IMDM medium containing 2 mM L-glutamine, a 100 U/mL penicillin-streptomycin solution, and nucleotides (ATP, UTP, GTP, and CTP, 20 μM for each)). More specifically, five types of mediums were prepared by adding 0.5% bovine serum albumin, 10 μg/mL insulin, 4 μg/mL LDL cholesterol, 200 μg/mL iron-saturated transferrin (iron-bound transferrin) and 50 μM 2-β-mercaptoethanol, respectively, to the basic mediums (FIG. 5). Mouse preadipocytes maintenance-cultured in accordance with the method of Example 1 were cultured in the above five types of mediums and in the basic medium, i.e., in total 6 types of medium (FIG. 5) for 7 days.
The mouse preadipocytes on Day 7 after culture in each of the mediums were directly labeled with a FITC-labeled anti-CD41 antibody and analyzed by flow cytometry.

[6] = test system: transferrin receptor CD71; assay: CD71 knock-down by siRNA: CD71 % (Example 11)
preadipocytes [7] = assay: CD71 knock-down by siRNA: TPO in culture supernatant by ELISA
Protocol: A medium was prepared by removing bovine serum albumin, insulin, LDL cholesterol and 2-β-mercaptoethanol from MKLI medium. The medium is the same as a medium (“basic medium+transferrin”), which is prepared by adding 200 μg/mL iron-bound transferrin to a medium (of MKLI medium) corresponding to a basic medium (a medium prepared by adding, to Iscove's Modified Dulbecco's Medium, IMDM), 2 mM L-glutamine, a 100 U/mL penicillin-streptomycin solution, and nucleotides (ATP, UTP, GTP, and CTP, 20 μM for each) and corresponding to a medium prepared by adding 200 μg/mL iron-bound transferrin to “the particularly preferable basic medium in the present invention” described in the detailed description of the present application. To preadipocytes, a gene of siRNA of transferrin receptor CD71 (siRNA-CD71) (the sequence of a sense strand is represented by SEQ. ID No. 1, whereas the sequence of the antisense strand is represented by SEQ. ID No. 2) or a scrambled oligo (negative control) (the sequence of a sense strand is represented by SEQ. ID No. 3, whereas the sequence of the antisense strand is represented by SEQ. ID No. 4) was introduced. The resultant preadipocytes were cultured in the aforementioned “basic medium+transferrin”. TPO in each of the culture supernatants was measured by ELISA quantitation using the TPO Quantikine ELISA kit (manufactured by R&D Systems). In Table 6, “unmeasurable” means that measurement values are equivalent to the value of the background. As is apparent from Table 6, TPO was secreted from preadipocytes using the scrambled oligo, whereas TPO was not secreted from preadipocytes in which transferrin receptor CD71 was knocked down by siRNA.

human preadipocytes [8] = assay: CD71 knock-down by siRNA: CD41-positive cells by flow cytometry
Source text: (§1) In consideration of the results, whether a transferrin receptor CD71 knock-down preadipocytes have differentiation potency to megakaryocytes and platelets or not was checked. To human preadipocytes, a gene of siRNA of CD71 (siRNA-CD71) (the sequence of a sense strand is represented by SEQ. ID No. 1, whereas the sequence of the antisense strand is represented by SEQ. ID No. 2) or a scrambled oligo (negative control) (the sequence of a sense strand is represented by SEQ. ID No. 3, whereas the sequence of the antisense strand is represented by SEQ. ID No. 4) was introduced. Forty eight hours later, the human preadipocytes were cultured in a medium prepared by adding transferrin alone to the basic medium, for four days.
(§2) Human preadipocytes on Day 4 after culture were directly labeled with a FITC-labeled anti-CD41 antibody and analyzed by flow cytometry. As a result, production of megakaryocytes and platelets was not observed in CD71 knock-down human preadipocytes (Table 1).

[9] = test system: transferrin receptor CD71; assay: CD71 knock-down by siRNA: CD71 % in human preadipocytes
Source text: as §1, §2

[10] = test system: mouse hematopoietic stem cells; assay: Differentiation of hematopoietic stem cells into megakaryocytes/platelets
Source text: Activity of TPO secreted during the process of producing megakaryocytes/platelets from preadipocytes was investigated based on the presence or absence of differentiation-inducing property of mouse hematopoietic stem cells into megakaryocytes/platelets when TPO was used. Whether platelets are produced or not was checked based on the shape analyzed by an optical microscope and flow-cytometric expression analysis of platelet specific marker CD41.

[11] = iron-bound transferrin 25 μg/mL in basic medium
[12] = iron-bound transferrin 50 μg/mL in basic medium
[13] = iron-bound transferrin 100 μg/mL in basic medium
[14] = iron-bound transferrin 200 μg/mL in basic medium
[15] = iron-bound transferrin 400 μg/mL in basic medium
[16] = Day 0 (48 hours after siRNA introduction)
[17] = Day 2, basic medium+transferrin
[18] = Day 4, basic medium+transferrin
[19] = Day 4 of culture in basic medium + transferrin

Compound: Apo-transferrin: non-iron-bound transferrin, manufactured by Athens Research and Technology
- CD41 (%) (preadipocytes [1]; apo-transferrin 200 μg/mL added to basic medium alone): 16.5 ± 4.95%
- CD41 (%) (preadipocytes [1]; apo-transferrin 400 μg/mL added to basic medium alone): 14.5 ± 3.54%

- decrease of concentration of TPO produced compared to the case of 200 μg/mL (human preadipocytes [3]; iron-bound transferrin 50 μg/mL): about 25%
Compound: Iron-bound transferrin: holo-transferrin formed by binding an apo-transferrin to an iron ion; manufactured by Sigma
- ratio (%) of CD41-positive cells (mouse preadipocytes [2]; c-MPL negative, CD71 negative preadipocytes): 10.8%
- ratio (%) of CD41-positive cells (mouse preadipocytes [2]; c-MPL negative, CD71 positive preadipocytes): 26.9%
- ratio (%) of CD41-positive cells (mouse preadipocytes [2]; c-MPL positive, CD71 positive preadipocytes): 62.3%
- TPO (human preadipocytes [3]; [11]): Below
- TPO (human preadipocytes [3]; [12]): 7.5 ± 1.1 pg/mL
- TPO (human preadipocytes [3]; [13]): 10.8 ± 3.5 pg/mL
- TPO (human preadipocytes [3]; [14]): 10 ± 2.4 pg/mL
- TPO (human preadipocytes [3]; [15]): Below
- CD41 (%) (human preadipocytes [4]; [11]): 15.5 ± 9.2%
- CD41 (%) (human preadipocytes [4]; [12]): 18 ± 9.9%
- CD41 (%) (human preadipocytes [4]; [13]): 17.5 ± 9.2%
- CD41 (%) (human preadipocytes [4]; [14]): 19 ± 8.5%
- CD41 (%) (human preadipocytes [4]; [15]): 11 ± 7.1%
- cells expressing CD41 (mouse preadipocytes [5]): observed

Compound: siRNA-CD71: siRNA of transferrin receptor CD71; sense strand SEQ. ID No. 1, antisense strand SEQ. ID No. 2 (sense GAACUUGAAACUGCGUAAATT; antisense UUUACGCAGUUUCAAGUUCTT; chemistry not given here) [siRNA of transferrin receptor CD71; ID No. 2]
- CD71 % [6, 16]: 5.7 ± 0.2%
- CD71 % [6, 17]: 13.7 ± 0.6%
- CD71 % [6, 18]: 7.5 ± 0.7%
- TPO (preadipocytes [7]; [16]): Unmeasurable
- TPO (preadipocytes [7]; [17]): Unmeasurable
- TPO (preadipocytes [7]; [18]): Unmeasurable
- CD41 (%) (human preadipocytes [8]; [16]): 0.1> %
- CD41 (%) (human preadipocytes [8]; [19]): 0.1> %
- CD71 % [9, 16]: 5.7 ± 0.2%
- CD71 % [9, 19]: 7.5 ± 0.7%

Compound: CC(=O)N(O)CCCCCNC(=O)CCC(=O)N(O)CCCCCNC(=O)CCC(=O)N(O)CCCCCN [Desferal, deferoxamine mesylate]
- CD41 (%) (preadipocytes [1]; Desferal 0.005 mg/mL in basic medium + 200 μg/mL iron-bound transferrin): 36 ± 11.3%
- CD41 (%) (preadipocytes [1]; Desferal 0.05 mg/mL in basic medium + 200 μg/mL iron-bound transferrin): 35.5 ± 10.6%
- CD41 (%) (preadipocytes [1]; Desferal 0.5 mg/mL in basic medium + 200 μg/mL iron-bound transferrin): 14 ± 5.7%
- CD41 (%) (preadipocytes [1]; Desferal 5 mg/mL in basic medium + 200 μg/mL iron-bound transferrin): 10.5 ± 6.4%
- CD41 (%) (preadipocytes [1]; Desferal 50 mg/mL in basic medium + 200 μg/mL iron-bound transferrin): 5 ± 2.8%

Compound: insulin: insulin, 10 μg/mL added to basic medium
- cells expressing CD41 (mouse preadipocytes [5]): not observed

Compound: TPO: thrombopoietin purchased from Stem Cell Technologies, 50 ng/mL in MKLI medium
- platelet production ([10]; Day 2 and Day 8 after initiation of culture): slightly produced
- ratio of CD41 positive cells ([10]; Day 8, 1.26% before culture, supernatant TPO 43.1±4.9 pg/mL, purchased TPO 50 ng/mL in MKLI medium): 5.56%

Compound: OCCS [2-β-mercaptoethanol]
- cells expressing CD41 (mouse preadipocytes [5]): not observed
